In patent US7732666B1, “O-methyltransferase gene from sorghum cloning, expression, transformation and characterization” (priority 2006, dated 2010):
Read-outs that look alike come from different tables or passages of the source.

T1: SbOMT1 (Sorghum bicolor, UniProt A8QW52)
T1 construct: full-length open reading frames for all three OMTs were overexpressed in E. coli as N-terminal polyhistidine fusions; polyhistidine (pET15b) (N); made in house; host or cells: E. coli BL21/DE3
T1 sequence (A8QW52 1-376): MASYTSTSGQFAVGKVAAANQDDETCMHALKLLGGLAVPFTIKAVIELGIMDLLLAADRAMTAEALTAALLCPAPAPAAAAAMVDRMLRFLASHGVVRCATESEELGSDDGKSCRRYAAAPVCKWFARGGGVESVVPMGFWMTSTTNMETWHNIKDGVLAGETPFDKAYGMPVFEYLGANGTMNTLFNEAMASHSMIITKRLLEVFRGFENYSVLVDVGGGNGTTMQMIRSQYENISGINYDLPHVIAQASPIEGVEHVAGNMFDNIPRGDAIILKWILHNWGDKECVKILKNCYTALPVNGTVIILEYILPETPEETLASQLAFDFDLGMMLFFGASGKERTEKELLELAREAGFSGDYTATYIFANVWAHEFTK

T2: SbOMT2 (Sorghum bicolor, UniProt A8QW51)
T2 construct: full-length open reading frames for all three OMTs were overexpressed in E. coli as N-terminal polyhistidine fusions; polyhistidine (pET15b) (N); made in house; host or cells: E. coli BL21/DE3
T2 sequence (A8QW51 1-372): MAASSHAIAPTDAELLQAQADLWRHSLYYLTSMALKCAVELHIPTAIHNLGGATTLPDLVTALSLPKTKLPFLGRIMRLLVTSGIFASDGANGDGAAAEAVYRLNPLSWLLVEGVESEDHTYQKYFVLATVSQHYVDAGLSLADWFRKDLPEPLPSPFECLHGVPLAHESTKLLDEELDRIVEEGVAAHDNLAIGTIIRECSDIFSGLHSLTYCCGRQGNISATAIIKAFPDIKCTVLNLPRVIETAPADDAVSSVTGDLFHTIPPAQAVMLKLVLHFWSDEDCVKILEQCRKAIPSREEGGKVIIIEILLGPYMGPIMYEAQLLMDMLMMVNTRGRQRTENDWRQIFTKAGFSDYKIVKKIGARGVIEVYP

B1: SbOMT1 (Sorghum bicolor) (protein)
chain: T1 sequence (A8QW52 1-376)

Experiments:
[1] = molecular target: T3, SbOMT3 (Sorghum bicolor, UniProt A8QW53, DUP296-296); assay type: biochemical; details: for Relative Activity (%) of Recombinant SbOMT3: relative to 5-n-pentyl-resorcinol = 100%, 30 min at 30° C.; for Km: recombinant SbOMT3, alkylresorcinols and co-substrate SAM
T3 construct: full-length open reading frames for all three OMTs were overexpressed in E. coli as N-terminal polyhistidine fusions; polyhistidine (pET15b) (N); made in house; host or cells: E. coli BL21/DE3
T3 sequence (A8QW53 other isoform, or with tags, fused parts or gaps DUP296-296): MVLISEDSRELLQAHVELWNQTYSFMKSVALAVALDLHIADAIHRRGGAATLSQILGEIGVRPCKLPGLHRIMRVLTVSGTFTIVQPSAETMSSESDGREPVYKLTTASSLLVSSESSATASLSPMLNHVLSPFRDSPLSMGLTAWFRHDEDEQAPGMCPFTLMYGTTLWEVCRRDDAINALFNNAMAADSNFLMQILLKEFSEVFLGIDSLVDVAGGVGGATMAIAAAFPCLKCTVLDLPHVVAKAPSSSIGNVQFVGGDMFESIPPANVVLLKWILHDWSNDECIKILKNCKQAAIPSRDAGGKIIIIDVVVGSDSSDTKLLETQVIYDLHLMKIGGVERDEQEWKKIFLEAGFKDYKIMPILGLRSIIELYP
Description: (§1) Substrate specificities and kinetic parameters for recombinant OMTs were determined using to a modified protocol based on Wang and Pichersky (1999. Arch. Biochem. Biophys. 368: 172-180). All enzymatic assays consisted of 90 μL of assay buffer (250 mM Tris-HCl, pH 7.5, 10 mM DTT), 200 μL of purified enzyme preparation (200 μg protein/ml in), 5 μL of a 10 mM substrate stock solution (dissolved in 100% ethanol), and 5 μL of S-[methyl-^14C] adenosyl-L-methionine (40-60 mCi/mmol, 0.1 mCi/ml; ICN Biomedicals, Irvine, Calif.). Reactions were incubated for 30 min at 30° C. using a Thermomixer (Brinkman Instrument, Westbury, N.Y.), then quenched by addition of 25 μL of 6 N HCl. Radiolabeled products were subsequently extracted by the addition of 1 mL of hexane:ethyl acetate (1:1 vol/vol), and 300 μL of the (upper) organic phase were transferred to scintillation vials containing 5 mL of Ultima Gold scintillation fluid (Packard BioScience, Meriden, CT). Scintillation counts were performed using a Tri-Carb 1600TR Liquid Scintillation Analyzer (Packard BioScience). Protein concentrations and time points used for activity measurements were controlled to insure linearity of the assays. Kinetic parameters were determined from assays performed in triplicate as described above, but with substrate concentrations ranging from 10 μM to 10 mM. Data from enzyme kinetics experiments were fit to the Michaelis-Menten equation using the SigmaPlot v. 9.01 enzyme kinetics module (Systat Software, Inc., Point Richmond, Calif.).
(§2) A panel of benzene-derivatives containing different functional groups and substitution patterns were tested in enzyme assays with all three recombinant enzymes (Table 2), including a series of 5-n-alkylresorcinols of increasing chain length, as well as 5-n-pentadecatrienyl resorcinol, the proposed sorgoleone pathway intermediate and in vivo substrate for the participating OMT enzyme (FIG. 1). For these analyses, full-length open reading frames for all three OMTs were overexpressed in E. coli as N-terminal polyhistidine fusions, purified using an activated Ni-column, then radiometrically assayed in the presence of different substrates as described by Wang and Pichersky (1999, supra), with slight modifications.

[2] = molecular target: T1, SbOMT1; assay: OMT enzymatic assay (radiometric, 14C-SAM) with recombinant SbOMT1; assay type: biochemical; details: relative to eugenol = 100%; 30 min at 30° C.
[3] = molecular target: T1, SbOMT1; assay: GC-MS analysis of products of recombinant SbOMT1 reacted with resveratrol; assay type: biochemical
Source text: (§3) The products from these reactions were then chemically analyzed by gas chromatography/mass spectroscopy. […] Thus, only about 2% of the product obtained was pterostilbene; 88% was 3,5-dihydroxy-4′-methoxystilbene (FIG. 7B).

[4] = system: human breast cancer and murine lymphoid neoplasma cell lines; details: cited from earlier work
[5] = system: Candida albicans, Cryptococcus neoformans, Staphylococcus aureus, and methicillin-resistant S. aureus; details: Rimando et al. 2003a; cited from earlier work
[6] = system: Phaeoacremonium aleophilum, Phaeomoniella chlamydospora, Libertella blepharis, Fomitiporia punctata and Stereum hirsutum; details: Mazzullo et al. 2000; cited from earlier work
[7] = molecular target: T2, SbOMT2; assay: Reaction of recombinant SbOMT2 with resveratrol, GC-MS analysis; assay type: biochemical
Source text: as §3

[8] = system: CCCCCCCc1cc(O)cc(O)c1; assay: purified protein, by the assay type; assay type: biochemical, Sorghum bicolor; details: other: recombinant SbOMT3, alkylresorcinols and co-substrate SAM; pH 7.5; 30.0 °C
Description: as §1, §2

[9] = system: CCCCCc1cc(O)cc(O)c1; assay: purified protein, by the assay type; assay type: biochemical, Sorghum bicolor; details: other: recombinant SbOMT3, alkylresorcinols and co-substrate SAM; pH 7.5; 30.0 °C
Description: as §1, §2

[10] = system: CCCCCCc1cc(O)cc(O)c1; assay: purified protein, by the assay type; assay type: biochemical, Sorghum bicolor; details: other: recombinant SbOMT3, alkylresorcinols and co-substrate SAM; pH 7.5; 30.0 °C
Description: as §1, §2

[11] = system: CCCCc1cc(O)cc(O)c1; assay: purified protein, by the assay type; assay type: biochemical, Sorghum bicolor; details: other: recombinant SbOMT3, alkylresorcinols and co-substrate SAM; pH 7.5; 30.0 °C
Description: as §1, §2

[12] = substrate: Oc1ccc(C=Cc2cc(O)cc(O)c2)cc1; assay: purified protein, by the assay type; details: other: recombinant SbOMT1, substrate resveratrol; pH 7.5; 30.0 °C
[13] = recombinant SbOMT3, alkylresorcinols

Molecule	Relative Activity (%) of Recombinant SbOMT3 [1]	Relative Activity (%) of Recombinant SbOMT1 [2] [%]	also measured
O=C(O)/C=C/c1ccc(O)cc1 [p-Coumaric acid]	3.5 ± 0.4%	0	–
COc1cc(/C=C/C(=O)O)ccc1O [Ferulic acid]	3.5 ± 0.6%	3.1 ± 0.3	–
COc1cccc(O)c1 [Resorcinol monomethyl ether]	3.2 ± 0.7%	24.8 ± 1.1	–
COc1cc(C)cc(O)c1 [Orcinol monomethyl ether]	3.5 ± 0.5%	49.6 ± 1.6	–
C=CC/C=C\C/C=C\CCCCCCCc1cc(O)cc(O)c1 [5-n-[8′, 11′, 14′]-Pentadecatrienyl-resorcinol]	14.9 ± 4.3%	–	activity of SbOMT3 relative to that for 5-pentadecyl resorcinol ([1]; higher than saturated side chain analogue of identical length): approximately 3 fold
CCCCCCCCCCCCCCCc1cc(O)cc(O)c1 [5-n-Pentadecyl-resorcinol]	5.0 ± 0.4%	<1.0	–
O=C(O)/C=C/c1ccc(O)c(O)c1 [Caffeic acid]	3.6 ± 0.6 3.6 ± 0.6%	–	–
COc1ccc(C=Cc2cc(O)cc(O)c2)cc1 [3,5-dihydroxy-4′-methoxystilbene]	–	–	share of the product obtained from reaction of SbOMT1 with resveratrol [3]: 88%
COc1cc(/C=C/c2ccc(O)cc2)cc(OC)c1 [Pterostilbene]	–	–	cytotoxicity against cancer cell lines [4]: cytotoxic
C=CCc1ccc(O)c(OC)c1 [Eugenol]	3.2 ± 0.5%	100 ± 5.2	–
Oc1ccccc1O [Catechol]	3.6 ± 0.6 3.6 ± 0.6%	–	–
Cc1cc(O)cc(O)c1 [Orcinol]	4.5 ± 0.1%	1.3 ± 0.7	–
COc1ccccc1O [Guaiacol]	3.2 ± 0.6%	7.8 ± 0.5	–
CCCCCCCc1cc(O)cc(O)c1 [5-n-Heptyl-resorcinol]	27.2 ± 1.3%	0	–
CCCCCc1cc(O)cc(O)c1 [5-n-Pentyl-resorcinol]	100 ± 2.2%	–	–
C[S+](CC[C@H](N)C(=O)[O-])C[C@H]1O[C@@H](n2cnc3c(N)ncnc32)[C@H](O)[C@@H]1O (stereo partly drawn) [SAM, S-Adenosyl-L-Methionine]	–	–	Km ([1]; read-out: Km): 67.5 µM
Oc1ccc(C=Cc2cc(O)cc(O)c2)cc1 [Resveratrol]	–	–	inhibition of human pathogens [5]: ineffective; inhibition of esca fungi (mycelial growth) [6]: did not inhibit mycelial growth; reaction of SbOMT2 with resveratrol [7]: did not react
CCCCCCCCCc1cc(O)cc(O)c1 [5-n-Nonyl-resorcinol]	3.3 ± 0.8%	0	–
CCCCc1cc(O)cc(O)c1 [5-n-Butyl-resorcinol]	42.0 ± 1.2%	1.1 ± 0.1	–
SbOMT3 (Sorghum bicolor; DUP296-296)	–	–	Km [8]: 23 µM; Vmax [8]: 0.000173 µmol/min/mg; kcat [8]: 0.00012 s⁻¹; kcat/Km [8]: 5.2 M⁻¹ s⁻¹; Km [9]: 152 µM; Vmax [9]: 0.000653 µmol/min/mg; kcat [9]: 0.00047 s⁻¹; kcat/Km [9]: 3.1 M⁻¹ s⁻¹; Km [10]: 72 µM; Vmax [10]: 0.00042 µmol/min/mg; kcat [10]: 0.0003 s⁻¹; kcat/Km [10]: 4.2 M⁻¹ s⁻¹; Km [11]: 481 µM; Vmax [11]: 0.00055 µmol/min/mg; kcat [11]: 0.00039 s⁻¹; kcat/Km [11]: 0.81 M⁻¹ s⁻¹
Oc1cccc(O)c1 [Resorcinol]	4.1 ± 0.1%	–	–
CCCCCCc1cc(O)cc(O)c1 [5-n-Hexyl-resorcinol]	79.4 ± 7.6%	0	–
COc1ccc(O)cc1 [4-Methoxyphenol]	3.3 ± 0.6%	8.3 ± 0.5	–
CCCc1cc(O)cc(O)c1 [5-n-Propyl-resorcinol]	11.8 ± 0.2%	2.2 ± 0.9	Kcat [1, 13]: 1.9 s^−1 × 10^4; V max [1, 13]: 15.6 nmol/mg/h; Km [1]: 1440 µM
B1	–	–	Km [12]: 16.9 ± 1.2 µM; Vmax [12]: 0.00014 µmol/min/mg; kcat [12]: 0.0001 s⁻¹; kcat/Km [12]: 5.9 M⁻¹ s⁻¹
